Measurements: the supplement of paper PMC5908809

Experiments:
NKL (IL-2 2.5 ng/mL) [1] = assay: drug sensitivity score (DSS) (DSS units); higher = more sensitive; extreme values may be limits of the assay; details: 72 h
KAI3 (IL-2 2.5 ng/mL) [2] = assay: as above; details: 72 h
NK-92 (IL-2 2.5 ng/mL) [3] = assay: as above; details: 72 h
[4] = system: normal primary NK cells, pool 2 (3 donors) (IL-2 2.5 ng/mL); assay: as above; details: 72 h
DERL-7 (IL-2 2.5 ng/mL) [5] = assay: as above; details: 72 h
NK-YS (IL-2 2.5 ng/mL) [6] = assay: as above; details: 72 h
[7] = system: normal primary NK cells, pool 1 (3 donors), resting (IL-2 0 ng/mL); assay: as above; details: 72 h
KHYG-1 (IL-2 2.5 ng/mL) [8] = assay: as above; details: 72 h
[9] = system: normal primary NK cells, pool 3 (3 donors) (IL-2 2.5 ng/mL); assay: as above; details: 72 h
YT (IL-2 2.5 ng/mL) [10] = assay: as above; details: 72 h
[11] = system: normal primary NK cells, pool 1 (3 donors) (IL-2 2.5 ng/mL); assay: as above; details: 72 h
SNK-6 (IL-2 2.5 ng/mL) [12] = assay: as above; details: 72 h
IMC-1 (IL-2 20 ng/mL) [13] = assay: as above; details: 72 h
NKL (IL-2 2.5 ng/mL) [14] = assay: percent inhibition of viability; higher = more inhibition; details: 72 h
KAI3 (IL-2 2.5 ng/mL) [15] = assay: as above; details: 72 h
NK-92 (IL-2 2.5 ng/mL) [16] = assay: as above; details: 72 h
[17] = system: normal primary NK cells, pool 2 (3 donors) (IL-2 2.5 ng/mL); assay: as above; details: 72 h
DERL-7 (IL-2 2.5 ng/mL) [18] = assay: as above; details: 72 h
NK-YS (IL-2 2.5 ng/mL) [19] = assay: as above; details: 72 h
[20] = system: normal primary NK cells, pool 1 (3 donors), resting (IL-2 0 ng/mL); assay: as above; details: 72 h
KHYG-1 (IL-2 2.5 ng/mL) [21] = assay: as above; details: 72 h
[22] = system: normal primary NK cells, pool 3 (3 donors) (IL-2 2.5 ng/mL); assay: as above; details: 72 h
YT (IL-2 2.5 ng/mL) [23] = assay: as above; details: 72 h
[24] = system: normal primary NK cells, pool 1 (3 donors) (IL-2 2.5 ng/mL); assay: as above; details: 72 h
SNK-6 (IL-2 2.5 ng/mL) [25] = assay: as above; details: 72 h
IMC-1 (IL-2 20 ng/mL) [26] = assay: as above; details: 72 h
[27] = system: normal NK cells expanded with K562-aAPC; assay: drug sensitivity score (DSS) (DSS units); higher = more sensitive; extreme values may be limits of the assay; details: 72 h; IL-2 2.5 ng/mL
Description: (§1)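 Drug sensitivity and resistance testing on K562-aAPC-expanded normal NK cells: 5 concentrations (10-fold steps over a 10,000-fold range), 72 h at 37 °C, viability by CellTiter-Glo normalised to DMSO and benzethonium chloride controls; DSS from the fitted curve.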

[28] = system: normal NK cells expanded with K562-aAPC; assay: percent inhibition of viability; higher = more inhibition; details: 72 h, IL-2 2.5 ng/mL
Description: as §1

Nc1ccccc1NC(=O)c1ccc(CNc2nccc(-c3cccnc3)n2)cc1 [Mocetinostat] (max concentration tested 10000 nM)
Details | drug sensitivity score
DERL-7 (IL-2 2.5 ng/mL) [5] | 17
IMC-1 (IL-2 20 ng/mL) [13] | 18.4
KAI3 (IL-2 2.5 ng/mL) [2] | 17.2
KHYG-1 (IL-2 2.5 ng/mL) [8] | 17.6
NK-92 (IL-2 2.5 ng/mL) [3] | 19.3
NK-YS (IL-2 2.5 ng/mL) [6] | 13.7
NKL (IL-2 2.5 ng/mL) [1] | 21.4
SNK-6 (IL-2 2.5 ng/mL) [12] | 19.4
YT (IL-2 2.5 ng/mL) [10] | 11.6
[4] | 12.9
[7] | 14.3
[9] | 12.2
[11] | 11.4
[27] | 14.8

percent inhibition of viability [%]
Details | 1 nM | 10 nM | 100 nM | 1000 nM | 10000 nM
DERL-7 (IL-2 2.5 ng/mL) [18] | -3.82 | -7.01 | -13.8 | 99.3 | 101
IMC-1 (IL-2 20 ng/mL) [26] | -6.53 | -6.19 | 4.71 | 98.2 | 101
KAI3 (IL-2 2.5 ng/mL) [15] | -5.2 | 1.15 | 22.6 | 77.3 | 104
KHYG-1 (IL-2 2.5 ng/mL) [21] | -6.09 | -6.23 | -4.57 | 100 | 105
NK-92 (IL-2 2.5 ng/mL) [16] | -18.8 | -10.3 | 8.7 | 99.6 | 105
NK-YS (IL-2 2.5 ng/mL) [19] | -9.56 | -10.2 | -10.2 | 71.5 | 102
NKL (IL-2 2.5 ng/mL) [14] | -8.5 | -7.5 | 22.2 | 98.2 | 106
SNK-6 (IL-2 2.5 ng/mL) [25] | -6.1 | -9.13 | 11.2 | 96.4 | 100
YT (IL-2 2.5 ng/mL) [23] | -3.42 | -2.92 | 3.45 | 48.2 | 104
[17] | -2.61 | -1 | -6.41 | 66.8 | 94.1
[20] | 6.94 | 10 | 2.89 | 76.2 | 88.4
[22] | -0.12 | -0.69 | 5.62 | 57.3 | 94.5
[24] | 0.77 | 13.7 | 15.1 | 47 | 90.7
[28] | -2.73 | -8.59 | -12.3 | 81.4 | 100

NC(=O)c1cccc(-c2cccc(OC(=O)NC3CCCCC3)c2)c1 [URB597] (max concentration tested 1000 nM)
Details | drug sensitivity score
DERL-7 (IL-2 2.5 ng/mL) [5] | 0
IMC-1 (IL-2 20 ng/mL) [13] | 0
KAI3 (IL-2 2.5 ng/mL) [2] | 0.21
KHYG-1 (IL-2 2.5 ng/mL) [8] | 0
NK-92 (IL-2 2.5 ng/mL) [3] | 0
NK-YS (IL-2 2.5 ng/mL) [6] | 0
NKL (IL-2 2.5 ng/mL) [1] | 2.41
SNK-6 (IL-2 2.5 ng/mL) [12] | 0
YT (IL-2 2.5 ng/mL) [10] | 0
[4] | 0
[7] | 0
[9] | 0
[11] | 0
[27] | 0

percent inhibition of viability [%]
Details | 0.1 nM | 1 nM | 10 nM | 100 nM | 1000 nM
DERL-7 (IL-2 2.5 ng/mL) [18] | 11 | 4.35 | 12 | 5.02 | 5.08
IMC-1 (IL-2 20 ng/mL) [26] | -4 | 4.78 | 2.31 | 4 | 3.07
KAI3 (IL-2 2.5 ng/mL) [15] | -3.62 | -6.19 | -2.65 | -2.84 | 16.1
KHYG-1 (IL-2 2.5 ng/mL) [21] | -1.98 | 3.31 | 2.01 | 2.83 | 7.66
NK-92 (IL-2 2.5 ng/mL) [16] | 1.97 | 3.05 | 12.2 | -3.48 | 7.28
NK-YS (IL-2 2.5 ng/mL) [19] | -1.3 | 0.73 | 8.14 | 5.17 | 8.51
NKL (IL-2 2.5 ng/mL) [14] | 3.64 | 0.02 | 13.3 | 15.1 | 14.2
SNK-6 (IL-2 2.5 ng/mL) [25] | -7.3 | 9.09 | 10.3 | 2.22 | 2.83
YT (IL-2 2.5 ng/mL) [23] | 1.76 | 2.28 | 2.53 | 3.49 | 9.4
[17] | -11.5 | -5.88 | 15.1 | -7.18 | 8.87
[20] | -1.65 | -9.18 | 1.01 | -15.8 | -6.01
[22] | -10.1 | -1.33 | 5.88 | -9.83 | 6.07
[24] | 5.21 | -3.54 | 1.12 | -15.5 | -7.59
[28] | -5.77 | -3.62 | -1 | 7.42 | 7.56
